Reference: patent US20040106148A1, “Polypeptides” (priority 2000, published 2004)
pKd: −log10 of the molar value. Blank lines part the entries; values can stand above or below the compound they belong to.

Key:
[1] = biological target: T1, human PEPP1 PH domain (Ser-Ala-Ser to Arg-Pro-Gln, accession N31123), GST fusion (Homo sapiens, UniProt Q9H4M7); assay: Surface plasmon resonance (BIACore), GST fusion binding to phosphoinositide in supported lipid monolayer; details: supported phosphatidylcholine monolayers, 1:1 binding model, NB, no binding detected, read-out: Apparent Kd
T1 construct: DNA probe corresponding to the N-terminal 15 to 169 residues of PEPP1; made in house; host or cells: E. coli BL21 (pGEX4T-1)
T1 sequence (Q9H4M7 15-169): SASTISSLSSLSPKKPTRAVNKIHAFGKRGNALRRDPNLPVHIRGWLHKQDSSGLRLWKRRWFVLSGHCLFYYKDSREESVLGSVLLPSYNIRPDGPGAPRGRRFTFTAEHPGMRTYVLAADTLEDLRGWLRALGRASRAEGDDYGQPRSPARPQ
Source text: (§1) Cloning of PH domains and preparation of expression constructs. All the human and mouse EST's were obtained from the I.M.A.G.E. Consortium and sequenced. The plant EST (accession number T04439) encoding a full length clone of AtPH1 was obtained from the Arabidopsis Biological Research. Centre (Ohio University). The sequence of each EST was verified and the full length PH domain of each EST was amplified by PCR using the Hi-fidelity PCR system with primers designed to incorporate a Kozak site, an initiating ATG codon followed by a myc epitope tag and a stop codon after the PH domain. […]
(§2) Expression of GST-PH domains in E.coli. The pGEX4T-1 constructs encoding the PH domains of FAPP1, AtPH1, PEPP1, LL5α, LL5β, evectin-2 and PH30 were transformed into BL21 E.coli cells and a 0.5 L culture was grown at 37° C. in Luria Broth containing 100 μg/ml ampicillin, until the absorbance at 600 nm was 0.6. […]
(§3) Kinetic analyses of the interactions between the GST PH domain fusions and the polyphosphoinositides were made using surface plasmon resonance based procedures as described previously, with the following modifications. […] Data were analysed using the bimolecular interaction model and the global fitting feature of the BIAevaluation 3 software for several sensorgrams at different protein concentrations. […]

[2] = system: PH domains whose lipid binding properties were investigated in FIG. 2 (GST fusions); assay: Protein-lipid overlay; details: data not shown
Experimental: (§4) FIG. 2. Phosphoinositide binding properties of the novel PH domains. The ability of the indicated GST fusion proteins to bind a variety of phosphoinositides was analysed using a protein-lipid overlay. Serial dilutions of the indicated phosphoinositides (100 pmol, 50 pmol, 25 pmol, 12.5 pmol, 6.3 pmol, 3.1 pmol and 1.6 pmol) were spotted onto a nitrocellulose membranes which were then incubated with the purified GST fusion proteins. The membranes were washed and the GST-fusion proteins bound to the membrane by virtue of their interaction with lipid were detected using a GST antibody. A representative of at least 3 separate experiments carried out is shown.
(§5) Protein-Lipid overlay. To assess the phosphoinositide binding properties of each PH domain, a protein-lipid overlay assay was performed using the GST fusion proteins as described previously. Briefly, 1 μl of lipid solution containing 1-100 pmol of phospholipids dissolved in a mixture of choroform:methanol:water (1:2:0.8) was spotted onto Hybond-C extra membrane and allowed to dry at room temperature for 1 h. The membrane was blocked in 3% (by mass) fatty acid-free BSA in TBST (50 mM Tris/HCl pH 7.5, 150 mM NaCl and 0.1% Tween-20 (by vol) for lh. The membrane was then incubated overnight at 4° C. with gentle agitation in the same solution containing 0.2 μg/ml of the indicated GST fusion protein. The membranes were washed 6 times over 30 min in TBST and then incubated for 1 h with 1/1000 dilution of anti-GST monoclonal antibody (Sigma). The membranes were washed as before, then incubated for 1 h with 1/5000 dilution of anti-mouse-HRP conjugate (Pierce). Finally, the membranes were washed 12 times over 1 h in TBST and the GST-fusion protein bound to the membrane by virtue of its interaction with phospholipid was detected by enhanced chemiluminescence.

[3] = biological target: T2, human FAPP1 PH domain (residues 1 to 99, accession W32183), GST fusion (Homo sapiens, UniProt Q9HB20); assay: Surface plasmon resonance (BIACore), GST fusion binding to phosphoinositide in supported lipid monolayer; details: supported phosphatidylcholine monolayers, 1:1 binding model, NB, no binding detected, read-out: Apparent Kd
T2 construct: made in house; host or cells: E. coli BL21 (pGEX4T-1)
T2 sequence (Q9HB20 1-99, one chain of several): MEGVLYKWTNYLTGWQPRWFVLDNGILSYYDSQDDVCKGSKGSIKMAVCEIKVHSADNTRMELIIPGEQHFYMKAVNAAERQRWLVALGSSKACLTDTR
Source text: as §1, §2, §3

[4] = biological target: human FAPP1 PH domain (residues 1 to 99), GST fusion (Homo sapiens, UniProt Q9HB20); assay: Protein-lipid overlay; assay type: binding; details: FIG. 2 and Table 2
human FAPP1 PH domain (residues 1 to 99), GST fusion, sequence (Q9HB20 1-99): as the sequence (Q9HB20 1-99, one chain of several) above
Experimental: as §4
(§6) Protein-Lipid overlay. To assess the phosphoinositide binding properties of each PH domain, a protein-lipid overlay assay was performed using the GST fusion proteins as described previously. Briefly, 1 μl of lipid solution containing 1-100 pmol of phospholipids dissolved in a mixture of choroform:methanol:water (1:2:0.8) was spotted onto Hybond-C extra membrane and allowed to dry at room temperature for 1 h. […]

[5] = biological target: human FAPP2 (accession AF380162), GST fusion (Homo sapiens, UniProt Q96JA3); assay: Protein-lipid overlay; assay type: binding; details: FIG. 11
human FAPP2 (accession AF380162), GST fusion, sequence (Q96JA3 whole entry, the tested form may be a part): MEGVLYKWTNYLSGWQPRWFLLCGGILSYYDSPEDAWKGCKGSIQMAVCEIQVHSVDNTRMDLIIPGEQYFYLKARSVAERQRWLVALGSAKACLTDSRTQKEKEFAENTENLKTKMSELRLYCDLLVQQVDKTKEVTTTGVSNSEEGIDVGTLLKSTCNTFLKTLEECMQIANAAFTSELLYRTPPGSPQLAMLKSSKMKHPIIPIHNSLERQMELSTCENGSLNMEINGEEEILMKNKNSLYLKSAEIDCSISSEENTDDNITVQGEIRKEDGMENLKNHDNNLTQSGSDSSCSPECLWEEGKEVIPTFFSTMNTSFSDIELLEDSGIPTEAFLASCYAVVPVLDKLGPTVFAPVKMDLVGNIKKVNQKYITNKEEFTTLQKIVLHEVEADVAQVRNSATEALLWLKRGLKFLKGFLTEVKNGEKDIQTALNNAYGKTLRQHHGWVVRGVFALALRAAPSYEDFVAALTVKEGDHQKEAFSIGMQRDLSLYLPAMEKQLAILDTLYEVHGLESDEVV
Experimental: as §4
Methods used are equivalent to those specified in the legend to FIG. 2.
as §6

[6] = system: 6 of the PH domains identified (GST fusions); assay: Phosphoinositide binding of PH domains (protein-lipid overlay or surface plasmon resonance); details: data not shown
Experimental: as §5, with “chemiluminescence. […]” for “chemiluminescence.”
We studied the specificity and affinity of interaction of the PH domains for phosphoinositide lipids using either a “protein-lipid overlay” assay (FIG. 2) or the more quantitative surface plasmon resonance based approach (Table 2). […]

[7] = biological target: human TAPP1 C-terminal PH domain (residues 95 to 404), GST fusion (Homo sapiens, UniProt Q9HB21); assay: Protein-lipid overlay; assay type: binding; details: protein-lipid overlay (FIG. 2)
human TAPP1 C-terminal PH domain (residues 95 to 404), GST fusion, sequence (Q9HB21 95-404): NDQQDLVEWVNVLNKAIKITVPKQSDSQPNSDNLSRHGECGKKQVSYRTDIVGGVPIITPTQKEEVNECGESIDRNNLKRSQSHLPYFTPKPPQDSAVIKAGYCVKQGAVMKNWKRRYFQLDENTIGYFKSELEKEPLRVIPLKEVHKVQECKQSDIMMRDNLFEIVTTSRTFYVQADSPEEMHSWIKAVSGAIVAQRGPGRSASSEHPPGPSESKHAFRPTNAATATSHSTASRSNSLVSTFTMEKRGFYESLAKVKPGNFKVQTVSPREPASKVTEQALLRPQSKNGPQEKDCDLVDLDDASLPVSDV
Experimental: as §4
(§7) FIG. 4. Comparison of the phosphoinositide binding properties of the N-terminal and C-terminal PH domains of TAPP1 and TAPP2. The ability of wild type and mutant forms of full length (FL) and isolated N-terminal (NT) and C-terminal (CT) PH domains of TAPP1 and TAPP2 GST-fusion proteins to interact with phosphoinositides were analysed using a protein-lipid overlay. Serial dilutions of the indicated phosphoinositides (100 pmol, 50 pmol, 25 pmol, 12.5 pmol, 6.3 pmol, 3.1 pmol and 1.6 pmol) were spotted onto a nitrocellulose membrane which was then incubated with the indicated purified GST fusion proteins. The membranes were washed and the GST-fusion proteins bound to the membrane by virtue of their interactions with lipid were detected using a GST antibody. A representative experiment of three is shown. The isolated N-terminal PH domain of human TAPP1 comprises residues 1 to 147, the isolated C-terminal PH domain of human TAPP1 comprises residues 95 to 404, the isolated N-terminal PH domain of mouse TAPP2 comprises residues 1 to 131 and the isolated C-terminal PH of mouse TAPP2 comprises residues 174 to 425.
as §5, with “Briefly, 1 μl of lipid solution containing 1-100 pmol of phospholipids dissolved in a mixture of choroform:methanol:water (1:2:0.8) was spotted onto Hybond-C extra membrane and allowed to dry at room temperature for 1 h.” left out

[8] = biological target: T3, mouse TAPP2 C-terminal PH domain (residues 174 to 425), GST fusion (Mus musculus, UniProt Q9ERS5); assay: Protein-lipid overlay; assay type: binding; details: protein-lipid overlay (FIG. 2)
T3 construct: made in house; host or cells: human embryonic kidney 293 cells (pEBG-2T)
T3 sequence (Q9ERS5 174-425): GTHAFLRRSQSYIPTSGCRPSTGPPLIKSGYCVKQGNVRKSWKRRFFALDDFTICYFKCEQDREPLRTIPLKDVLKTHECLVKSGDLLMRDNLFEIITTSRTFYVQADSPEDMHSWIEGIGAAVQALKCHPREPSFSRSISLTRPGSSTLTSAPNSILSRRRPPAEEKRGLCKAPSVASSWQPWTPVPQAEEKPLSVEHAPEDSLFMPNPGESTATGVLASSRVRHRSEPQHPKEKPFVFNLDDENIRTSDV
Experimental: as §4, §7
as §5, with “Briefly, 1 μl of lipid solution containing 1-100 pmol of phospholipids dissolved in a mixture of choroform:methanol:water (1:2:0.8) was spotted onto Hybond-C extra membrane and allowed to dry at room temperature for 1 h.” left out

[9] = biological target: human evectin-2 PH domain (residues 1 to 167), GST fusion (Homo sapiens, UniProt Q96CS7); assay: Protein-lipid overlay; assay type: binding; details: FIG. 2
human evectin-2 PH domain (residues 1 to 167), GST fusion, sequence (Q96CS7 1-167): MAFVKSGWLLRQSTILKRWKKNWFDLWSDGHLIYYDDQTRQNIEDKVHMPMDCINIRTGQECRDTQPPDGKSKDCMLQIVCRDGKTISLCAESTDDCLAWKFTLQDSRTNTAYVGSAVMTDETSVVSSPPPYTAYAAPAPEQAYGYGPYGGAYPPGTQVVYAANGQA
Experimental: as §4, §1

[10] = system: GST-DAPP1; details: control; cited from earlier work
[11] = system: GST-GRP1; details: control; cited from earlier work
[12] = system: human phospholipase Cδ1 PH domain (residues 20 to 184), GST fusion; details: control; cited from earlier work

pKd [1]: 6.49
Compound: CCCCCCCCCCCCCCCC(=O)OC[C@H](COP(=O)(O)O[C@@H]1[C@H](O)[C@H](OP(=O)(O)O)[C@@H](O)[C@H](O)[C@H]1O)OC(=O)CCCCCCCCCCCCCCC [PtdIns3P]

Compound: phosphatidylethanolamine
lipid binding [2]: None of the PH domains whose lipid binding properties were investigated in FIG. 2, interacted

Compound: phosphatidylcholine
lipid binding [2]: None of the PH domains whose lipid binding properties were investigated in FIG. 2, interacted

Compound: phospatidylinositol
lipid binding [2]: None of the PH domains whose lipid binding properties were investigated in FIG. 2, interacted

pKd [3]: 7.70 | phosphoinositide binding [4]: only binds | phosphoinositide binding [5]: binds specifically | phosphoinositide binding ([5]; listed as PtdIns-4P): specifically binds
Compound: CCCCCCCCCCCCCCCC(=O)OC[C@H](COP(=O)(O)O[C@H]1[C@H](O)[C@@H](O)[C@H](OP(=O)(O)O)[C@@H](O)[C@H]1O)OC(=O)CCCCCCCCCCCCCCC [PtdIns4P, phosphoinositol 4-monophosphate]

phosphoinositide binding [6]: did not bind
Compound: CCCCC/C=C\C/C=C\C/C=C\C/C=C\CCCC(=O)O[C@H](COC(=O)CCCCCCCCCCCCCCCCC)COP(=O)(O)O[C@H]1[C@H](O)[C@@H](OP(=O)(O)O)[C@H](OP(=O)(O)O)[C@@H](OP(=O)(O)O)[C@H]1O [sn-1-stearoyl-2-arachidonyl-D-PtdIns(3,4,5)P3]

phosphoinositide binding [7]: did not bind | phosphoinositide binding [8]: did not bind | phosphoinositide binding [9]: moderate affinity | phosphoinositide binding [6]: did not bind
Compound: CCCCCCCCCCCCCCCC(=O)OC[C@H](COP(=O)(O)O[C@H]1[C@H](O)[C@@H](OP(=O)(O)O)[C@H](OP(=O)(O)O)[C@@H](OP(=O)(O)O)[C@H]1O)OC(=O)CCCCCCCCCCCCCCC [PtdIns(3,4,5)P3, phospatidylinositol (3,4,5)-trisphosphate]
phosphoinositide binding [10]: binds | phosphoinositide binding [11]: binds only

Compound: phosphatidylserine
lipid binding [2]: None of the PH domains whose lipid binding properties were investigated in FIG. 2, interacted

Compound: CCCCCCCCCCCCCCCC(=O)OC[C@H](COP(=O)(O)O[C@@H]1[C@H](O)[C@H](O)[C@@H](OP(=O)(O)O)[C@H](OP(=O)(O)O)[C@H]1O)OC(=O)CCCCCCCCCCCCCCC [PtdIns(4,5)P2, phosphatidylinositol 4,5-bisphosphate]
phosphoinositide binding [4]: does not interact | phosphoinositide binding [12]: binds only
